Read-outs that look alike come from different tables or passages of the source.
How the values were obtained:
[1] = target: T1, T. cruzi glucokinase (TcGlcK) (Trypanosoma cruzi, UniProt Q4E4E1); experiment: Two-enzyme coupled colorimetric glucokinase activity assay (G6PDH/NADPH), TcGlcK; type: biochemical; conditions: for Glucokinase selectivity ratio = Ki (HsGlcK)/Ki (TcGlcK): higher values indicate better selectivity toward TcGlcK
T1 construct: precedes the start methionine and the 9-residue segment VGKKQKAQL at the C-terminal region was not included; made in house; host or cells: E. coli BL21(DE3)
Procedure: (§1) Enzymatic activity of glucokinase from T. cruzi and H. sapiens were both performed using a similar protocol but had minor modifications. In general, a two-enzyme coupled colorimetric assay was performed, as previously described (4). The assay is based on the formation of NADPH (λmax≈340 nm; ϵ340=6,220 M^−1 cm^−1) (5). In the 1st step of the assay, glucokinase/hexokinase in the presence of Mg^2+, ATP, and D-glucose react to form glucose-6-phosphate (G-6-P) and ADP. In the 2nd step, glucose-6-phosphate dehydrogenase (G6PDH) in the presence of the formed G-6-P and NADP^+ react to form 6-phosphogluconolactone and NADPH. All measurements were performed in triplicate at 22° C.
TcGlcK assays used purified enzyme (0.12 μM for the monomer (0.0051 mg/mL)) that was used in the reaction mixtures, which were carried out with S. cerevisiae G6PDH (0.0064 mg/mL) in an assay buffer [50 mM triethanolamine (pH 7.6), 7.95 mM MgCl2, 0.55 mM ATP, 0.55 mM NADP^+] contained substrate ([D-glucose] ranged from 0.2-15.0 mM) and inhibitor ([BENZ-GlcN] ranged from 0-20 μM; [CBZ-GlcN] ranged from 0-10 μM; [HPOP-GlcN] ranged from 0-10 μM; and [DBT-GlcN] ranged from 0-20 μM). Reactions were performed at room temperature (22° C.) and were terminated after 120 sec (optimal time) using 90 μL of 1.5 M EDTA (pH 8.0). The EDTA solution was prepared from the tetrasodium salt. For quantification of NADPH, UV-visible spectrophotometric absorbance readings were recorded at 338 nm (λ) with an Agilent 8453 UV-visible spectrophotometer exactly 1 min after solutions were treated with the EDTA solution. Concentration of NADPH was determined through Beer's Law using the molar absorptivity of 6,220 M^−1 cm^−1.

[2] = target: T2, Homo sapiens glucokinase (hexokinase IV) (HsGlcK) (Homo sapiens, UniProt P35557); experiment: Two-enzyme coupled colorimetric glucokinase activity assay (G6PDH/NADPH), HsGlcK; type: biochemical; conditions: measurements in triplicate, 22° C., substrate D-glucose, compounds tested as racemic mixtures (n ≥ 2), read-out: Ki versus substrate, HsGlcK
T2 construct: precedes residue K12 (N-terminal segment M1-A11 of HsGlcK was not included); made in house; host or cells: E. coli BL21(DE3)
T2 sequence (P35557 12-457 limits assumed): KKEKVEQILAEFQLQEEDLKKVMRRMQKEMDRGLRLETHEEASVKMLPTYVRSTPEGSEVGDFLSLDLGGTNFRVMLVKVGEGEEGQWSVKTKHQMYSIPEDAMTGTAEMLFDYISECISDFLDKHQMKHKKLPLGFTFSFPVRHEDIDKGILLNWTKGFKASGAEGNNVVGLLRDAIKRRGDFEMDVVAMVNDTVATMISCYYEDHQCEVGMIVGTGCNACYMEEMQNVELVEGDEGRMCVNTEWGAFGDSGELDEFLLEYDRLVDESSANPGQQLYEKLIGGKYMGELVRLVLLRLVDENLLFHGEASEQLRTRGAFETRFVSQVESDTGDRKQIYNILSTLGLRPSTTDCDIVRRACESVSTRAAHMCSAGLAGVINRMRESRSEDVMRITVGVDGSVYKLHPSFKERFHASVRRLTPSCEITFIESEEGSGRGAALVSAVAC
Procedure: as §1
HsGlcK assays were performed at room temperature and used the same protocol implemented for TcGlcK (see above) except that the reactions were terminated after 600 sec (optimum time) with 90 μL of 1.5 M EDTA (pH 8.0) and the reaction mixtures had slight modification. Briefly, DTT, which reduces disulfide bonds was added to the stock solution aliquot of HsGlcK on the day of the experiment (e.g. 1.0 μL of 20 mM DTT was mixed with 99.0 μL of 1.0 mg/mL HsGlcK) and was allowed to pre-equilibrate at 4° C. for 30 min prior to running assay reactions. Purified HsGlcK (0.15 μM for the monomer or 0.0077 mg/mL) and S. cerevisiae G6PDH (0.0064 mg/mL) in an assay buffer [50 mM triethanolamine (pH 7.6), 7.95 mM MgCl2, 5.0 mM ATP, 0.55 mM […], 1.0% (v/v) DMSO, 1.0 mM DTT, 5.0 mM KCl] contained substrate ([D-glucose] ranged from 5.0-50.0 mM) and inhibitor ([BENZ-GlcN] ranged from 0-500 μM; [CBZ-GlcN] ranged from 0-500 μM; and [HPOP-GlcN] ranged from 0-500 μM). DBT-GlcN was not used in the inhibition enzymatic assays because this compound absorbs light at the wavelength of NADPH (338 nm) at the concentrations needed for any reasonable inhibition of HsGlcK.

[3] = system: T. cruzi (Tulahuen strain) intracellular amastigote parasite cells; experiment: T. cruzi in-vitro growth inhibition assay, amastigotes co-cultured in NIH/3T3 fibroblasts; type: cell-based; conditions: Trypanosoma cruzi, NIH3T3, co-cultured within NIH/3T3 fibroblast cells, triplicate
Procedure: T. cruzi (Tulahuen strain) intracellular amastigote parasite cells co-cultured within NIH/3T3 mammalian fibroblast cells were tested for in-vitro growth inhibition from each of Samples 1-4. […] Samples 1, 3, and 4 had IC50 values>40 μM. The methods used for producing cultures of T. cruzi cells and mammalian cells in addition to the methods of performing T. cruzi in-vitro inhibition assays were previously described by Andriani and colleagues (20). All biological experimentation was carried out at the Anti-Infectives Screening Core Service Center at New York University School of Medicine, Department of Microbiology.

[4] = colorimetric assay, measurements in triplicate, 22° C., substrate D-glucose, compounds tested as racemic mixtures (n ≥ 2), read-out: Ki versus substrate, TcGlcK

T1 sequence (Q4E4E1 entry or part of it): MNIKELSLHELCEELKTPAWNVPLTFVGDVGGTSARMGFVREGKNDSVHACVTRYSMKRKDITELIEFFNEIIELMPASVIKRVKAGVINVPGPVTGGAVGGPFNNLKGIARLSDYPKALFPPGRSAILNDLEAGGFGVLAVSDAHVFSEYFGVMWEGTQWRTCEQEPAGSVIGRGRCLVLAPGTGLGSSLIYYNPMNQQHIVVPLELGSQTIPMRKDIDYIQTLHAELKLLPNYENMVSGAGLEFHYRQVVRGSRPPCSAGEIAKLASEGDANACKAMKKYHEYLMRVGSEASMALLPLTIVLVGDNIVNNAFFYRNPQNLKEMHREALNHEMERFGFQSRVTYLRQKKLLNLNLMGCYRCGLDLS

Structure (SMILES)	Ki [1] [nM]	Glucokinase selectivity ratio = Ki (HsGlcK)/Ki (TcGlcK) [1]	Ki [2] [µM]	IC50 [3] [µM]	Ki [1, 4] [nM]
O=C(N[C@H]1C(O)O[C@H](CO)[C@@H](O)[C@@H]1O)OCc1ccccc1 (mixture of isomers) [CBZ-GlcN, 2-N-carboxybenzyl-2-deoxy-D-glucosamine]	710 ± 50	245	174 ± 50	> 40	
O=C(N[C@H]1C(O)O[C@H](CO)[C@@H](O)[C@@H]1O)OCC1=Cc2ccccc2S1(=O)=O (mixture of isomers) [DBT-GlcN, 2-[[1,1-dioxobenzo[b]thiophen-2-yl]methyloxocarbonylamino]-2-deoxy-D-glucosamine]				> 40	4100 ± 300
O=C(CCc1ccc(O)cc1)N[C@H]1C(O)O[C@H](CO)[C@@H](O)[C@@H]1O (mixture of isomers) [HPOP-GlcN, 2-[[3-(4-hydroxyphenyl)-1-oxopropyl]amino]-2-deoxy-D-glucosamine]	1300 ± 600	186	242 ± 97	> 40	
O=C(N[C@H]1C(O)O[C@H](CO)[C@@H](O)[C@@H]1O)c1ccccc1 (stereo partly drawn) [BENZ-GlcN, 2-benzamido-2-deoxy-D-glucopyranose]		12	376 ± 196	16.08 ± 0.16	32000 ± 26000
